{"source": "patent US10420831B2", "about": "“Inactivation of viruses by delipidation” (priority 2016, dated 2019)", "test_system": "PRRSV strain ND99-14", "assay": "Inactivation kinetics of PRRSV, live virus TCID50 on MARC145 cells", "assay_type": "cell-based", "method": "Inactivation kinetics experiments were conducted using PRRSV strain ND99-14, described in application U.S. Ser. No. 62/296,658, filed Feb. 18, 2016. […] Room temperature is between about 20° C. and about 25° C., and optimally between about 22° C. and about 24° C.\n[…] […] Aliquots for each time point were stored at 4° C. and −70° C. until further use.\nAfter the 24 hour sample was collected, virus was transferred to a new container. […] […] […] Aliquots for each time point were stored at 4° C. and −70° C. until further use.\nTen-fold serial dilutions (10^−1-10^−9) of mock inactivated and inactivated virus were added to MARC145 cells cultured on 96 well plates. The plates were incubated at 37° C. and 5% CO2 for 96 hours to allow live virus to infect cells. Virus replication was determined by observation of cytopathic effect (CPE) due to virus infection of the MARC145 cells. Each well containing a virus dilution was scored either positive or negative with regards to CPE and the resulting numbers of positive or negatice wells for each dilution were used to determine the TCID50/mL using the Reed-Muench TCID50 calculation. The mock inactivated virus was treated to the same media and temperature conditions as the inactivated virus without the addition of the inactivation agent.", "note": "Marks after values point to notes of the source that are not given here."}
{"substance": "methyl β-cyclodextrin [MBCD]", "values": [{"measurement": "live virus reduced", "setting": "20 mM MBCD, after 15 minutes of incubation", "result": "approximately 2.5 logs"}, {"measurement": "PRRS virus titer", "setting": "20 mM MBCD, room temperature, hour 0.25, samples stored at 4° C.", "result": "5.8^a Log10 TCID50/mL"}, {"measurement": "PRRS virus titer", "setting": "20 mM MBCD, room temperature, hour 0.25, samples stored at −70° C.", "result": 3.3, "unit": "Log10 TCID50/mL"}, {"measurement": "PRRS virus titer", "setting": "20 mM MBCD, room temperature, hour 4, samples stored at 4° C.", "result": 5.8, "unit": "Log10 TCID50/mL"}, {"measurement": "PRRS virus titer", "setting": "20 mM MBCD, room temperature, hour 8, samples stored at 4° C.", "result": 5.9, "unit": "Log10 TCID50/mL"}, {"measurement": "PRRS virus titer", "setting": "20 mM MBCD, room temperature, hour 8, samples stored at −70° C.", "result": 2.8, "unit": "Log10 TCID50/mL"}, {"measurement": "PRRS virus titer", "setting": "20 mM MBCD, room temperature, hour 12, samples stored at 4° C.", "result": 5.6, "unit": "Log10 TCID50/mL"}, {"measurement": "PRRS virus titer", "setting": "20 mM MBCD, room temperature, hour 12, samples stored at −70° C.", "result": 3.2, "unit": "Log10 TCID50/mL"}, {"measurement": "PRRS virus titer", "setting": "20 mM MBCD, room temperature, hour 16, samples stored at 4° C.", "result": 5.6, "unit": "Log10 TCID50/mL"}, {"measurement": "PRRS virus titer", "setting": "20 mM MBCD, room temperature, hour 16, samples stored at −70° C.", "result": 3.2, "unit": "Log10 TCID50/mL"}, {"measurement": "PRRS virus titer", "setting": "20 mM MBCD, room temperature, hour 20, samples stored at 4° C.", "result": 5.6, "unit": "Log10 TCID50/mL"}, {"measurement": "PRRS virus titer", "setting": "20 mM MBCD, room temperature, hour 20, samples stored at −70° C.", "result": 3.4, "unit": "Log10 TCID50/mL"}, {"measurement": "PRRS virus titer", "setting": "20 mM MBCD, room temperature, hour 24, samples stored at 4° C.", "result": 5.6, "unit": "Log10 TCID50/mL"}, {"measurement": "PRRS virus titer", "setting": "20 mM MBCD, room temperature, hour 24, samples stored at −70° C.", "result": 3.6, "unit": "Log10 TCID50/mL"}, {"measurement": "PRRS virus titer", "setting": "40 mM MBCD (second 20 mM added at 24 h), hour 30, samples stored at 4° C.", "result": 0, "unit": "Log10 TCID50/mL"}, {"measurement": "PRRS virus titer", "setting": "40 mM MBCD (second 20 mM added at 24 h), hour 30, samples stored at −70° C.", "result": 0, "unit": "Log10 TCID50/mL"}, {"measurement": "PRRS virus titer", "setting": "40 mM MBCD (second 20 mM added at 24 h), hour 36, samples stored at 4° C.", "result": 0, "unit": "Log10 TCID50/mL"}, {"measurement": "PRRS virus titer", "setting": "40 mM MBCD (second 20 mM added at 24 h), hour 36, samples stored at −70° C.", "result": 0, "unit": "Log10 TCID50/mL"}, {"measurement": "PRRS virus titer", "setting": "40 mM MBCD (second 20 mM added at 24 h), hour 42, samples stored at 4° C.", "result": 0, "unit": "Log10 TCID50/mL"}, {"measurement": "PRRS virus titer", "setting": "40 mM MBCD (second 20 mM added at 24 h), hour 42, samples stored at −70° C.", "result": 0, "unit": "Log10 TCID50/mL"}, {"measurement": "PRRS virus titer", "setting": "40 mM MBCD (second 20 mM added at 24 h), hour 48, samples stored at 4° C.", "result": 0, "unit": "Log10 TCID50/mL"}, {"measurement": "PRRS virus titer", "setting": "40 mM MBCD (second 20 mM added at 24 h), hour 48, samples stored at −70° C.", "result": 0, "unit": "Log10 TCID50/mL"}, {"measurement": "PRRS virus titer", "setting": "40 mM MBCD (second 20 mM added at 24 h), hour 56, samples stored at 4° C.", "result": 0, "unit": "Log10 TCID50/mL"}, {"measurement": "PRRS virus titer", "setting": "40 mM MBCD (second 20 mM added at 24 h), hour 56, samples stored at −70° C.", "result": 0, "unit": "Log10 TCID50/mL"}, {"measurement": "PRRS virus titer", "setting": "40 mM MBCD (second 20 mM added at 24 h), hour 64, samples stored at 4° C.", "result": 0, "unit": "Log10 TCID50/mL"}, {"measurement": "PRRS virus titer", "setting": "40 mM MBCD (second 20 mM added at 24 h), hour 64, samples stored at −70° C.", "result": 0, "unit": "Log10 TCID50/mL"}, {"measurement": "PRRS virus titer", "setting": "40 mM MBCD (second 20 mM added at 24 h), hour 72, samples stored at 4° C.", "result": 0, "unit": "Log10 TCID50/mL"}, {"measurement": "PRRS virus titer", "setting": "40 mM MBCD (second 20 mM added at 24 h), hour 72, samples stored at −70° C.", "result": 0, "unit": "Log10 TCID50/mL"}, {"measurement": "PRRS virus titer", "setting": "40 mM MBCD (second 20 mM added at 24 h), hour 84, samples stored at 4° C.", "result": 0, "unit": "Log10 TCID50/mL"}, {"measurement": "PRRS virus titer", "setting": "40 mM MBCD (second 20 mM added at 24 h), hour 84, samples stored at −70° C.", "result": 0, "unit": "Log10 TCID50/mL"}, {"measurement": "PRRS virus titer", "setting": "40 mM MBCD (second 20 mM added at 24 h), hour 96, samples stored at 4° C.", "result": 0, "unit": "Log10 TCID50/mL"}, {"measurement": "PRRS virus titer", "setting": "40 mM MBCD (second 20 mM added at 24 h), hour 96, samples stored at −70° C.", "result": 0, "unit": "Log10 TCID50/mL"}, {"measurement": "titer of PRRS virus that could be inactivated", "setting": "40 mM MBCD added in a 2 step process", "result": "at least 8 log10 TCID50/mL"}, {"measurement": "virus level after second addition of MBCD (in words)", "setting": "second addition of 20 mM MBCD at 24 hours, next time point (30 hours)", "result": "undetectable levels"}, {"measurement": "less virus when stored at −70° C. versus 4° C.", "setting": "time point samples with detectable live virus", "result": "at least 100 fold"}]}
